From patent US11360104B2, “Microbial-based biosensors” (TRUSTEES OF BOSTON UNIVERSITY, priority 2017, dated 2022)
Where two headings read alike, the source gives them in different places.

Experiments:
[1] = target: Pimelobacter simplex PinR (AIY20223.2; SEQ ID NO: 1), his-tagged (AIY-his6); test: QD-FRET steroid sensor (QD-PinR + DNA-Cy5), steroid-induced TF-DNA unbinding; assay type: biochemical
Protocol: Fluorescent spectra were analyzed using MATLAB (Mathworks) and were fitted with a sum of 2 Gaussians (D=QD: FWHM=27 nm, λmax=607 nm; A=DNA-Cy5: FWHM=40 nm, λmax=669 nm). The area of each Gaussian was extracted and FD and FA are obtained respectively for the fluorescence of QD (donor) and Cy5 (acceptor).
Raw dose-response curves were obtained by plotting FA/FD as a function of the steroid concentration. Sensor output is the normalization of the fluorescent spectra of the donor and acceptor according to the following equation: […]
Non-normalized dose-response were fitted with Origin Pro 8 software with the non-linear equation: […]
The cross-reactivity of progesterone regarding the different steroids was calculated with the following equation: […]
CdSe/CdS/ZnS QDs were coated with a zwitterionic polymer bearing histamine anchoring functions (P1, SI). Once the hydrophobic QDs were transferred into H2O using a biphasic ligand exchange, his-tagged TFs were self-assembled on the QD surface to produce the QD-TF. Addition of the double stranded, Cy5-labeled TF-binding sequence completed probe assembly as the oligo binds to the TF in the absence of progesterone (PRG). The molar ratios of the QD, TF, and DNA in the sensor were controlled through the stoichiometric ratios of the mixed parts.
Two fluorescent spectra were recorded, one from the QDs and one from the Cy5 due to the FRET.
First, the DNA1 (most binding sequence) has been used to build the first biosensor, named sensor 1. For this sensor, a ratio of QD/TF/DNA of 1/4/18 was chosen. […] In order to homogenize the fluorescent signals in between batches and different sensor variations, FA/FD was normalized to give the signal output. Signal output is then plotted against PRG concentration to give a dose-response curve (FIG. 9C) This curve was fitted with the non-linear equation XX to obtain the half-maximal inhibitory concentration (IC50) (Table 13).
Description for a typical experiment, using a molar ratio of QD/TF/DNA=1/4/18. QDs in (275 uL, 0.15 uM in HEPES 1×, pH 7.6 with 1% BSA) were mixed with AIY-his6 (275 uL, 0.6 uM in HEPES 1× pH 7.6) at room temperature for 45 min. Then, the double-stranded DNA labelled with a Cy5 fluorescent probe at the 3′ and 5′ ends (275 uL, 2.7 uM in HEPES 1× pH 7.6) was added to the mixture. After 30 min, 220 uL of HEPES 1× pH 7.5 and 330 uL of 5× binding buffer (25 mM MgCl2, 25% glycerol, and 250 mg/L Invitrogen™ UltraPure™ Salmon Sperm DNA in Tris-HCl 0.1M) were added and the mixture is left 15 more min at RT.
50 uL of the sensor (QD/TF/DNA) was then splitted in 3×9 centrifuge tubes to which 10 uL of progesterone at the desired concentration is added. As such, the final concentration of QD/TF/DNA for the measurements is 25 nM/100 nM/450 nM. A 384 well plate was filled with 60 uL of each solution. The fluorescence intensity was monitored on a spectrofluorimeter from 535 nm to 800 nm exciting at 400 nm, equipped with a 450 nm long-pass filter in emission.

[2] = tested on: P. simplex bacteria (steroid responsive genome island, SRGI); test: RNA-Seq screen of steroid treated P. simplex against solvent controls; assay type: cell-based, Pimelobacter simplex; conditions: Log2 fold change vs solvent control
Description: In order to identify steroid binding Transcription Factors, a whole transcriptome RNA sequencing (RNA-Seq) screen was developed (FIG. 7). The growth of Pimelobacter simplex bacteria was profiled with respect to the starting inoculation density, solvent toxicity, and the addition of steroids (FIG. 16). […] P. simplex bacteria were screened against the steroid solvents ethanol (EtOH) and dimethyl sulfoxide (DMSO). […] Steroid growth curves were similarly performed using a starting OD of 0.005 and constant solvent dosing with titrations of steroids. […] P. simplex bacteria were grown in the presence of 700 μM testosterone, 21.88 μM progesterone, 87.50 μM estrone, 21.88 μM 17β-estradiol, 21.88 μM hydrocortisone, or 175.00 μM aldosterone concentrations were selected for comparison.
Using accession gene tags, genes were annotated for steroid relevant enzymes or transcription factors. […] Allosteric TF binding sequences are often palindromes and typically located near the start of its gene location in an intergenic space. With such a design, the allosteric TF can regulate itself or the open reading frame (ORF) near it in response to its effector molecule. […] Once identified, the TFs were cloned and recombinantly expressed for thorough characterization.
Cells were grown in 6 mL volumes of media at the OD, solvent, and steroid concentrations found from the growth curves in 14 mL polypropylene round-bottom tubes (Corning #352059) in technical duplicate. The same controls as in the steroid exposure growth curve were used for setting up RNA extraction samples. The cells were incubated at their corresponding temperature with continuous orbital shaking at 150 rpm until the end of lag-phase, mid-log phase, or stationary phase from the start of inoculation. Afterward, samples were removed and a 1:1 ratio of RNAprotect Bacteria Reagent (Qiagen #76506) was added followed by spinning down at 4° C. for 10 minutes at 4000 g. Supernatant was removed and the pellet re-suspended in 300 μL of RNAprotect and transferred into 2.0 mL Safe-Lock Tubes (Eppendorf #3101). The samples were then spun down once again at 4° C. for 10 minutes at 10000 g. Once the supernatant has been removed the samples were placed on ice and ready for RNA extraction. RNA extraction was done by Qiacube (Qiagen #9001292) set to the RNeasy Protect Bacteria Mini Kit protocol of bacterial cell pellet with enzymatic lysis. Tube A was prepared as described except with the addition of 150 mg/mL lysozyme (Sigma-Aldrich #L6876) and 20 mg/mL proteinase K (Roche #03115879001) all diluted in 1xTE buffer. RNA samples were subsequently quantified using Qubit RNA HS Assay Kit (Thermo Fisher Scientific #Q32852) and analyzed using a RNA 6000 Pico Kit (Agilent 5067-1513) in a 2100 Bioanalyzer (Agilent G2939A). RNA samples were either immediately used for RNA-Seq library preparation or stored long-term at −80° C.
RNA-Seq libraries were then produced from these samples using a slightly modified ScriptSeq v2 RNA-Seq Library Preparation Kit (Illumina 455A/22124) ensuring use of unique index primers through ScriptSeq Index PCR Primers (Sets 1-4) 48 rxns/set (Illumina #SSIP1234).

With `CC(=O)[C@H]1CC[C@H]2[C@@H]3CCC4=CC(=O)CC[C@]4(C)[C@H]3CC[C@]12C` [PRG, Progesterone] the IC50 ([1]; DNA1, QD/TF/DNA 1/4/18, read-out: X0) was 460 ± 20 nM, the IC50 ([1]; DNA2, QD/TF/DNA 1/4/18, read-out: X0) was 370 ± 10 nM and the IC50 ([1]; DNA 3, QD/TF/DNA 1/1/2, read-out: X0) was 210 nM. It also gave an IC50 ([1]; DNA 3, QD/TF/DNA 1/1/18, read-out: X0) of 350 nM, an IC50 ([1]; DNA 3, QD/TF/DNA 1/2/2, read-out: X0) of 270 nM and an IC50 ([1]; DNA 3, QD/TF/DNA 1/2/18, read-out: X0) of 410 nM. It also gave an IC50 ([1]; DNA 3, QD/TF/DNA 1/4/2, read-out: X0) of 200 nM, an IC50 ([1]; DNA 3, QD/TF/DNA 1/4/18 (Table 11), read-out: X0) of 290 nM and an IC50 ([1]; DNA3, QD/TF/DNA 1/4/18, read-out: X0) of 290 ± 20 nM. It also gave an IC50 ([1]; DNA 3, QD/TF/DNA 1/10/18, read-out: X0) of 390 nM, an IC50 ([1]; DNA 3, QD/TF/DNA 1/16/18, read-out: X0) of 440 nM and an IC50 ([1]; DNA 4, QD/TF/DNA 1/1/4, read-out: X0) of 49 ± 12 nM. The IC50 ([1]; DNA 4, QD/TF/DNA 1/1/18, read-out: X0) was 74 ± 18 nM, the IC50 ([1]; DNA 4, QD/TF/DNA 1/4/9, read-out: X0) was 140 ± 14 nM and the IC50 ([1]; DNA 4, QD/TF/DNA 1/4/18 (Table 12), read-out: X0) was 150 ± 12 nM. For the same compound, the IC50 ([1]; DNA4, QD/TF/DNA 1/4/18, read-out: X0) was 150 ± 10 nM, the IC50 ([1]; DNA 4, QD/TF/DNA 1/16/8, read-out: X0) was 380 ± 16 nM and the IC50 ([1]; sensor 2 (DNA 2, QD/TF/DNA=1/4/18), read-out: IC50) was 133 ± 9 nM. For the same compound, the IC50 ([1]; sensor 3 (DNA 2, QD/TF/DNA=1/1/18), read-out: IC50) was 57 ± 3 nM and the “upregulation of genes inside the SRGI (in words)” value [2] was “upregulation of genes inside the SRGI were observed”.
